Reference: patent US7163947B2, “1-Amino 1H-imidazoquinolines” (3M Innovative Properties Company, priority 2003, dated 2007)

Compound	melting point [°C]
CCCCc1nc2c(N)nc3ccccc3c2n1NC(C)C [Example 1, 2-Butyl-N^1-isopropyl-1H-imidazo[4,5-c]quinoline-1,4-diamine]	157.1 to 158.7
CCCCc1nc2c(N)nc3ccccc3c2n1NCc1ccccc1 [Example 2, N^1-Benzyl-2-butyl-1H-imidazo[4,5-c]quinoline-1,4-diamine]	159.3 to 160.5
Cc1nc2c(N)nc3ccccc3c2n1NC(C)C [Example 3, N^1-Isopropyl-2-methyl-1H-imidazo[4,5-c]quinoline-1,4-diamine]	227 to 229
CCOCc1nc2c(N)nc3ccccc3c2n1NCc1ccccc1 [Example 4, N^1-Benzyl-2-ethoxymethyl-1H-imidazo[4,5-c]quinoline-1,4-diamine]	152 to 155
CCOCc1nc2c(N)nc3ccccc3c2n1NC(C)C [Example 5, 2-Ethoxymethyl-N^1-isopropyl-1H-imidazo[4,5-c]quinoline-1,4-diamine]	162 to 164
CCOCc1nc2c(N)nc3ccccc3c2n1NC1CCCCC1 [Example 6, N^1-Cyclohexyl-2-(ethoxymethyl)-1H-imidazo[4,5-c]quinoline-1,4-diamine]	143 to 145
CCOCc1nc2c(N)nc3ccccc3c2n1N(C)C [Example 7, N^1,N^1-Dimethyl-2-ethoxymethyl-1H-imidazo[4,5-c]quinoline-1,4-diamine]	213 to 215
CCOCc1nc2c(N)nc3ccccc3c2n1NC(CC)CC [Example 9, 2-Ethoxymethyl-N^1-(1-ethylpropyl)-1H-imidazo[4,5-c]quinoline-1,4-diamine]	125 to 128
CCOCc1nc2c(N)nc3ccccc3c2n1NCC(C)C [Example 10, 2-Ethoxymethyl-N^1-isobutyl-1H-imidazo[4,5-c]quinoline-1,4-diamine]	137 to 140
CCOCc1nc2c(N)nc3c(c2n1NC(C)C)CCCC3 [Example 11, 2-Ethoxymethyl-N^1-isopropyl-6,7,8,9-tetrahydro-1H-imidazo[4,5-c]quinoline-1,4-diamine]	144 to 146
CCOCc1nc2c(N)nc3ccccc3c2n1NCCC(C)C [Example 12, 2-Ethoxymethyl-N^1-(3-methylbutyl)-1H-imidazo[4,5-c]quinoline-1,4-diamine]	129 to 132
CCOCc1nc2c(N)nc3ccccc3c2n1N1CCOCC1 [Example 13, 2-Ethoxymethyl-1-(morpholin-4-yl)-1H-imidazo[4,5-c]quinolin-4-amine]	223 to 224
CCOCc1nc2c(N)nc3ccccc3c2n1NCCCNS(C)(=O)=O [Example 14, N-{3-[(4-Amino-2-ethoxymethyl-1H-imidazo[4,5-c]quinolin-1-yl)amino]propyl}methanesulfonamide]	148 to 150
CCOCc1nc2c(N)nc3ccccc3c2n1NCCCNC(=O)Nc1ccccc1 [Example 15, 1-{3-[(4-Amino-2-ethoxymethyl-1H-imidazo[4,5-c]quinolin-1-yl)amino]propyl}-3-phenylurea]	177 to 179
CCCc1nc2c(N)nc3ccccc3c2n1NC(C)C [Example 16, N^1-Isopropyl-2-propyl-1H-imidazo[4,5-c]quinoline-1,4-diamine]	181 to 184
CCCc1nc2c(N)nc3c(c2n1NC(C)C)CCCC3 [Example 17, N^1-Isopropyl-2-propyl-6,7,8,9-tetrahydro-1H-imidazo[4,5-c]quinoline-1,4-diamine]	162 to 164
CCCc1nc2c(N)nc3cc(-c4cccnc4)ccc3c2n1NC(C)C [Example 19, N^1-Isopropyl-2-propyl-7-(pyridin-3-yl)-1H-imidazo[4,5-c]quinoline-1,4-diamine]	218 to 219
CCOCc1nc2c(N)nc3cc(OCc4ccccc4)ccc3c2n1NC(C)C [Example 20, 7-Benzyloxy-2-ethoxymethyl-N^1-isopropyl-1H-imidazo[4,5-c]quinoline-1,4-diamine]	194 to 196
CCOCc1nc2c(N)nc3ccccc3c2n1NCCCNC(=O)N1CCOCC1 [Example 23, [3-(4-Amino-2-ethoxymethyl-1H-imidazo[4,5-c]quinolin-1-ylamino)propyl]morpholine-4-carboxamide]	158 to 160

Compound	melting point [°C]
CCOCc1nc2c(N)nc3ccccc3c2n1NCCCNC(=O)C1CCCC1 [Example 24, N-(3-{[4-Amino-2-(ethoxymethyl)-1H-imidazo[4,5-c]quinolin-1-yl]amino}propyl)cyclopentanecarboxamide]	75 to 77
CCOCc1nc2c(N)nc3ccccc3c2n1NCCCNC(=O)NC(C)C [Example 25, 1-(3-{[4-Amino-2-(ethoxymethyl)-1H-imidazo[4,5-c]quinolin-1-yl]amino}propyl)-3-isopropylurea]	174 to 177
CCOCc1nc2c(N)nc3c(c2n1NCCCNC(=O)NC(C)C)CCCC3 [Example 26, 1-(3-{[4-Amino-2-(ethoxymethyl)-6,7,8,9-tetrahydro-1H-imidazo[4,5-c]quinolin-1-yl]amino}propyl)-3-isopropylurea]	185 to 187
CCCc1nc2c(N)nc3cc(-c4cccc(NS(C)(=O)=O)c4)ccc3c2n1NC(C)C [Example 27, N-{3-[4-Amino-1-(isopropylamino)-2-propyl-1H-imidazo[4,5-c]quinolin-7-yl]phenyl}methanesulfonamide]	217 to 227
CCOCc1nc2c(N)nc3c(c2n1NCCCNC(=O)N1CCOCC1)CCCC3 [Example 28, N-(3-{[4-Amino-2-(ethoxymethyl)-6,7,8,9-tetrahydro-1H-imidazo[4,5-c]quinolin-1-yl]amino}propyl)morpholine-4-carboxamide]	152 to 154
CCCc1nc2c(N)nc3cc(-c4cccc(C(=O)N5CCOCC5)c4)ccc3c2n1NC(C)C [Example 29, N^1-Isopropyl-7-[3-(morpholin-4-ylcarbonyl)phenyl]-2-propyl-1H-imidazo[4,5-c]quinoline-1,4-diamine]	274 to 276
CCOCc1nc2c(N)nc3cc(OCCCNS(C)(=O)=O)ccc3c2n1NC(C)C [Example 30, N-(3-{[4-Amino-2-(ethoxymethyl)-1-(isopropylamino)-1H-imidazo[4,5-c]quinolin-7-yl]oxy}propyl)methanesulfonamide]	181 to 183
CCCc1nc2c(N)nc3cc(-c4ccccc4)ccc3c2n1NC(C)C [Example 31, N^1-Isopropyl-7-phenyl-2-propyl-1H-imidazo[4,5-c]quinoline-1,4-diamine]	217 to 220
CCOCc1nc2c(N)nc3ccccc3c2n1NCCCNC(=O)C(C)C [Example 32, N-(3-{[4-Amino-2-(ethoxymethyl)-1H-imidazo[4,5-c]quinolin-1-yl]amino}propyl)-2-methylpropanamide]	108 to 110
CCOCc1nc2c(N)nc3c(c2n1NCCCNC(=O)C(C)C)CCCC3 [Example 33, N-(3-{[4-Amino-2-(ethoxymethyl)-6,7,8,9-tetrahydro-1H-imidazo[4,5-c]quinolin-1-yl]amino}propyl)-2-methylpropanamide]	163 to 165
CCOCc1nc2c(N)nc3ccccc3c2n1NCCCNC(C)=O [Example 34, N-(3-{[4-Amino-2-(ethoxymethyl)-1H-imidazo[4,5-c]quinolin-1-yl]amino}propyl)acetamide]	178 to 181
CCCc1nc2c(N)nc3cc(CCc4cccnc4)ccc3c2n1NC(C)C [Example 35, N^1-Isopropyl-2-propyl-7-(2-pyridin-3-ylethyl)-1H-imidazo[4,5-c]quinoline-1,4-diamine]	100 to 103
CCc1nc2c(N)nc3ccccc3c2n1NC(C)C [Example 36, 2-Ethyl-N^1-isopropyl-1H-imidazo[4,5-c]quinoline-1,4-diamine]	245 to 247
CCOCc1nc2c(N)nc3c(c2n1NCCCNC(C)=O)CCCC3 [Example 37, N-(3-{[4-Amino-2-(ethoxymethyl)-6,7,8,9-tetrahydro-1H-imidazo[4,5-c]quinolin-1-yl]amino}propyl)acetamide]	198 to 200
CCNC(=O)NCCCNn1c(COCC)nc2c(N)nc3ccccc3c21 [Example 38, 1-(3-{[4-Amino-2-(ethoxymethyl)-1H-imidazo[4,5-c]quinolin-1-yl]amino}propyl)-3-ethylurea]	138 to 141
CCNC(=O)NCCCNn1c(COCC)nc2c(N)nc3c(c21)CCCC3 [Example 39, 1-(3-{[4-Amino-2-(ethoxymethyl)-6,7,8,9-tetrahydro-1H-imidazo[4,5-c]quinolin-1-yl]amino}propyl)-3-ethylurea]	189 to 191
CCc1nc2c(N)nc3ccccc3c2n1NCCCNC(C)=O [Example 40, N-{3-[(4-Amino-2-ethyl-1H-imidazo[4,5-c]quinolin-1-yl)amino]propyl}acetamide]	167 to 169
CCc1nc2c(N)nc3c(c2n1NCCCNC(C)=O)CCCC3 [Example 41, N-{3-[(4-Amino-2-ethyl-6,7,8,9-tetrahydro-1H-imidazo[4,5-c]quinolin-1-yl)amino]propyl}acetamide]	175 to 176
CC(C)Nn1c(CO)nc2c(N)nc3ccccc3c21 [Example 42, [4-Amino-1-(isopropylamino)-1H-imidazo[4,5-c]quinolin-2-yl]methanol]	228 to 229
